“Also recorded” adds a separate entry of the source.
What was measured:
[1] = system: Normal keratinocyte cells; assay: Effect of erlotinib on 2D non-diseased keratinocytes (proliferation, Loricrin expression); format: cell-based
Experimental: Normal keratinocyte cells were cultured and treated with vehicle or erlotinib at 100, 500 and 1000 nM. The proliferation rate of the cells was determined.

[2] = system: Non-diseased 3D human skin equivalent (HSE); assay: Effect of erlotinib on non-diseased 3D human skin equivalent; format: cell-based; conditions: 100 nM erlotinib every 72 hours until harvest at day 10
Experimental: Human skin equivalents were prepared by methods known in the art. Examples of such methods are disclosed in Mieremet et al. Int. J. Mol. Sci. (2021) 22(11):5790. Non-diseased cells were plated for 3D human skin equivalent (HSE) and treated with 100 nM erlotinib from the time of lifting to the air-liquid interface every 72 hours until harvest at day 10. The samples were subjected to protein, mRNA, immunofluorescence and morphological analysis.

[3] = system: EI derived keratinocyte; assay: Effect of erlotinib on 2D cultured keratinocytes derived from epidermolytic ichthyosis (colony density); format: cell-based, human; conditions: 100 nM erlotinib; microscope and fold change
Experimental: Tissue from non-diseased donors and EI patients were cultured and treated with 100 nM erlotinib.

[4] = system: 3D EI HSE; assay: Effect of erlotinib on EI 3D HSE (morphological analysis); format: cell-based, human; conditions: 100 nM erlotinib every 72 hours until harvest at day 12; EI constructs
Experimental: Non-diseased cells and cells from an EI patient were plated for 3D human skim equivalent (HSE)and treated with 100 nM erlotinib from the time of lifting to the air-liquid interface every 72 hours until harvest at day 12. The samples were subjected to morphological analysis. […] (FIGS. 4A-B).

[5] = system: non-diseased 3D HSE; assay: TEER epidermal barrier function, non-diseased 3D HSE; format: cell-based, human; conditions: 10 nM and 100 nM erlotinib
[6] = system: EI 3D HSE; assay: TEER epidermal barrier function, EI 3D HSE; format: cell-based, human; conditions: 10 nM and 100 nM erlotinib
[7] = system: Non-diseased 3D human skin equivalent (HSE); assay: Gene expression analysis, non-diseased 3D HSE; format: cell-based
Experimental: (§1) Non-diseased cells and cells from an EI patient were plated for 3D human skin equivalent (HSE)and treated with the erlotinib at 10 nM or 100 nM from the time of lifting to the air-liquid interface every 72 hours until harvest at day 10. The samples were subjected to gene expression analysis. […] Markers of terminal differentiation such as fillaggrin (FLG) and loricrin (LOR) and markers of cell adhesion such as desmoglein 1 (DSG 1) were also modified.
Gene expression results for non-diseased tissue following treatment with erlotinib: […]

[8] = system: EI patient 3D human skin equivalent (HSE); assay: Gene expression analysis, EI patient 3D HSE; format: cell-based; conditions: for CDN4 gene expression / CLDN1 gene expression / DSC1 gene expression / DSG1 gene expression / FLG gene expression / IVL gene expression / KRT10 gene expression / KRT16 gene expression / LOR gene expression / OCLN gene expression / TJP1 gene expression: Control 1.00
Experimental: as §1
Gene expression results for EI patient tissue following treatment with erlotinib: […]

[9] = system: Hairless Skh-1 mice treated with TPA; assay: Mouse model of hyperkeratosis (TPA-induced skin inflammation); format: in vivo; conditions: composition comprising 0.4%, 1.0% or 4.0% erlotinib daily starting on Day 8
Experimental: Hairless Skh-1 mice were treated with 12-O-Tetradecanoylphorbol-13-acetate (TPA) daily for 7 days than every other day for the next 7 days to induce skin inflammation. The mice were then treated with vehicle or a composition comprising 0.4%, 1.0% or 4.0% erlotinib daily starting on Day 8. The mice were assessed for degrees of inflammation, transepidermal water loss and expression of p^Y1068EGFR, EGFR, KRT10 and KRT16.

[10] = harvest day 10, listed as Erlotinib
[11] = Erlo 10 nM, NHEK83.19 non-diseased 3D HSE, Control 1.00
[12] = Erlo 10 nM, NUTC394.14 non-diseased 3D HSE, Control 1.00
[13] = Erlo 10 nM, NUTC439.14 non-diseased 3D HSE, Control 1.0
[14] = Erlo 100 nM, NHEK83.19 non-diseased 3D HSE, Control 1.00
[15] = Erlo 100 nM, NUTC394.14 non-diseased 3D HSE, Control 1.00
[16] = Erlo 100 nM, NUTC439.14 non-diseased 3D HSE, Control 1.0
[17] = Erlo 10 nM, CMH98.11 EI patient 3D HSE
[18] = Erlo 10 nM, CMH101.11 EI patient 3D HSE
[19] = Erlo 10 nM, CMH102.11 EI patient 3D HSE
[20] = Erlo 100 nM, CMH98.11 EI patient 3D HSE
[21] = Erlo 100 nM, CMH101.11 EI patient 3D HSE
[22] = Erlo 100 nM, CMH102.11 EI patient 3D HSE

C#Cc1cccc(Nc2ncnc3cc(OCCOC)c(OCCOC)cc23)c1 [erlotinib]
keratinocyte differentiation ([1]; following exposure to erlotinib): keratinocyte differentiation is increased
Loricrin expression ([1]; high dose erlotinib): increased Loricrin expression
keratinocyte proliferation ([1]; medium and high doses of erlotinib (tested 100, 500 and 1000 nM) vs vehicle): decreased keratinocyte proliferation
desmosomal organization [2]: desmosomal organization is enhanced
terminal differentiation [2]: enhances terminal differentiation
EI derived keratinocyte colony density [3]: marked reduction in colony density; also recorded: markedly reduced
morphologic change in the upper epidermis [4]: marked morphologic change
epidermal barrier function (TEER) ([5]; harvest day 10): does not impair epidermal barrier function
epidermal barrier function (TEER) [5, 10]: did not produced a significant change in TEER values
epidermal barrier function (TEER) ([6]; harvest day 10): does not impair epidermal barrier function
epidermal barrier function (TEER) [6, 10]: did not produced a significant change in TEER values
CDN4 gene expression [7, 11]: 2.92
CLDN1 gene expression [7, 11]: 1.30
DSC1 gene expression [7, 11]: 0.60
DSG1 gene expression [7, 11]: 0.73
FLG gene expression [7, 11]: 0.51
IVL gene expression [7, 11]: 2.15
KRT10 gene expression [7, 11]: 0.28
KRT16 gene expression [7, 11]: 1.70
LOR gene expression [7, 11]: 0.03
OCLN gene expression [7, 11]: 1.76
TJP1 gene expression [7, 11]: 1.65
CDN4 gene expression [7, 12]: 2.87
CLDN1 gene expression [7, 12]: 1.28
DSC1 gene expression [7, 12]: 0.59
DSG1 gene expression [7, 12]: 0.72
FLG gene expression [7, 12]: 0.50
IVL gene expression [7, 12]: 2.11
KRT10 gene expression [7, 12]: 0.27
KRT16 gene expression [7, 12]: 1.67
LOR gene expression [7, 12]: 0.03
OCLN gene expression [7, 12]: 1.73
TJP1 gene expression [7, 12]: 1.62
CDN4 gene expression [7, 13]: 0.7
CLDN1 gene expression [7, 13]: 1.9
DSC1 gene expression [7, 13]: 1.9
DSG1 gene expression [7, 13]: 2.1
FLG gene expression [7, 13]: 1.0
IVL gene expression [7, 13]: 0.9
KRT10 gene expression [7, 13]: 2.1
KRT16 gene expression [7, 13]: 0.9
LOR gene expression [7, 13]: 1.4
OCLN gene expression [7, 13]: 0.7
TJP1 gene expression [7, 13]: 0.7
CDN4 gene expression [7, 14]: 1.65
CLDN1 gene expression [7, 14]: 1.24
DSC1 gene expression [7, 14]: 2.69
DSG1 gene expression [7, 14]: 2.77
FLG gene expression [7, 14]: 2.37
IVL gene expression [7, 14]: 1.21
KRT10 gene expression [7, 14]: 11.50
KRT16 gene expression [7, 14]: 1.00
LOR gene expression [7, 14]: 8.19
OCLN gene expression [7, 14]: 1.36
TJP1 gene expression [7, 14]: 1.58
CDN4 gene expression [7, 15]: 1.54
CLDN1 gene expression [7, 15]: 1.16
DSC1 gene expression [7, 15]: 2.52
DSG1 gene expression [7, 15]: 2.59
FLG gene expression [7, 15]: 2.21
IVL gene expression [7, 15]: 1.14
KRT10 gene expression [7, 15]: 10.75
KRT16 gene expression [7, 15]: 0.89
LOR gene expression [7, 15]: 7.66
OCLN gene expression [7, 15]: 1.27
TJP1 gene expression [7, 15]: 1.48
CDN4 gene expression [7, 16]: 1.4
CLDN1 gene expression [7, 16]: 29.4
DSC1 gene expression [7, 16]: 29.4
DSG1 gene expression [7, 16]: 9.3
FLG gene expression [7, 16]: 25.9
IVL gene expression [7, 16]: 1.5
KRT10 gene expression [7, 16]: 17.2
KRT16 gene expression [7, 16]: 1.6
OCLN gene expression [7, 16]: 1.6
TJP1 gene expression [7, 16]: 1.3
keratin 10 (KRT10) expression ([7]; normal human keratinocytes in 3D culture, erlotinib 10 nM or 100 nM): marked increase
keratin 10 (KRT10) expression ([8]; EI derived human keratinocytes in 3D culture, erlotinib 10 nM or 100 nM): marked increase
CDN4 gene expression [8, 17]: 0.7
CLDN1 gene expression [8, 17]: 0.9
DSC1 gene expression [8, 17]: 0.8
DSG1 gene expression [8, 17]: 1.8
FLG gene expression [8, 17]: 1.2
IVL gene expression [8, 17]: 1.3
KRT10 gene expression [8, 17]: 0.9
KRT16 gene expression [8, 17]: 1.3
LOR gene expression [8, 17]: 1.2
OCLN gene expression [8, 17]: 0.7
TJP1 gene expression [8, 17]: 0.7
CDN4 gene expression [8, 18]: 0.96
CLDN1 gene expression [8, 18]: 0.71
DSC1 gene expression [8, 18]: 0.65
DSG1 gene expression [8, 18]: 1.11
FLG gene expression [8, 18]: 1.08
IVL gene expression [8, 18]: 1.04
KRT10 gene expression [8, 18]: 1.00
KRT16 gene expression [8, 18]: 1.63
LOR gene expression [8, 18]: 1.10
OCLN gene expression [8, 18]: 0.81
TJP1 gene expression [8, 18]: 0.55
CDN4 gene expression [8, 19]: 1.86
CLDN1 gene expression [8, 19]: 0.79
DSC1 gene expression [8, 19]: 0.79
DSG1 gene expression [8, 19]: 4.72
FLG gene expression [8, 19]: 1.22
IVL gene expression [8, 19]: 1.58
KRT10 gene expression [8, 19]: 2.27
KRT16 gene expression [8, 19]: 1.31
LOR gene expression [8, 19]: 0.90
OCLN gene expression [8, 19]: 1.15
TJP1 gene expression [8, 19]: 1.13
CDN4 gene expression [8, 20]: 1.8
CLDN1 gene expression [8, 20]: 1.6
DSC1 gene expression [8, 20]: 1.7
DSG1 gene expression [8, 20]: 1.9
FLG gene expression [8, 20]: 1.1
IVL gene expression [8, 20]: 2.3
KRT10 gene expression [8, 20]: 1.6
KRT16 gene expression [8, 20]: 0.8
LOR gene expression [8, 20]: 0.6
OCLN gene expression [8, 20]: 1.2
TJP1 gene expression [8, 20]: 1.2
CDN4 gene expression [8, 21]: 0.72
CLDN1 gene expression [8, 21]: 0.37
DSC1 gene expression [8, 21]: 6.09
DSG1 gene expression [8, 21]: 2.57
FLG gene expression [8, 21]: 0.72
IVL gene expression [8, 21]: 0.83
KRT10 gene expression [8, 21]: 5.78
KRT16 gene expression [8, 21]: 0.85
LOR gene expression [8, 21]: 0.95
OCLN gene expression [8, 21]: 0.57
TJP1 gene expression [8, 21]: 0.57
CDN4 gene expression [8, 22]: 3.17
CLDN1 gene expression [8, 22]: 2.20
DSC1 gene expression [8, 22]: 2.20
DSG1 gene expression [8, 22]: 6.61
FLG gene expression [8, 22]: 2.06
IVL gene expression [8, 22]: 1.76
KRT10 gene expression [8, 22]: 6.44
KRT16 gene expression [8, 22]: 1.14
LOR gene expression [8, 22]: 0.79
OCLN gene expression [8, 22]: 1.92
TJP1 gene expression [8, 22]: 1.44
skin inflammation ([9]; TPA-treated Skh-1 mice): dose dependent reduction of skin inflammation
transepithelial water loss ([9]; TPA-treated Skh-1 mice): significantly decreasing transepithelial water loss
expression of p^Y1068EGFR, EGFR, KRT10 and KRT16 ([9]; Western blot): dose dependent change

— patent publication US20230113775A1, “ANHYDROUS COMPOSITIONS OF EGFR INHIBITORS AND METHODS OF USE” (priority 2021, published 2023)
